Test results from patent US5053408A, “Hexitol derivatives having vasodilative activity” (Kyowa Hakko Kogyo Co., Ltd., priority 1989, dated 1991).
Where a name gives a salt, the structure may show the parent alone. Read-outs that look alike come from different tables or passages of the source.

How the values were obtained:
[1] = system: coronary vasospasm model (lysine-vasopressin); test: Effects on coronary vasospasm model (lysine-vasopressin test), inhibition of ST-segment elevation; type: in vivo, male Wistar rats; conditions: Rattus norvegicus, lysine-vasopressin 0.3 I.U./kg iv, MED = minimum dose with depression rate of 20% or higher
male dd-mice = test: Acute toxicity; conditions: mouse, in vivo, 10080 min; for MLD i.p.: ip; for MLD p.o.: po
Experimental: The compounds were orally administered and intraperitoneally administered to male dd-mice weighing 20 to 25 g. […] was determined by observing the mortality for seven days after the administration.

[2] = po, 30 min before anesthetization, read-out: Coronary vasoconstriction model MED p.o.
[3] = ip, 20 min before anesthetization, read-out: Coronary vasoconstriction model MED i.p.

Compound | minimal effective dose [1, 2] [mg/kg] | MLD i.p. (male dd-mice) [mg/kg] | MLD p.o. (male dd-mice) [mg/kg] | minimal effective dose [1, 3] [mg/kg]
O=C(c1ccc(Cl)nc1)N1CCN([C@H]2CO[C@H]3[C@@H]2OC[C@@H]3O[N+](=O)[O-])CC1 [Compound 89, 5-[4-(6-Chloropyridin-3-yl)carbonylpiperazin-1-yl]-5-deoxy-1.4;3.6-dianhydro-L-iditol 2-nitrate hydrochloride] | < 30 | > 100 | > 300 | 
O=C(c1cccs1)N1CCN([C@H]2CO[C@H]3[C@@H]2OC[C@@H]3O[N+](=O)[O-])CC1 [Compound 111, 5-Deoxy-5-[4-(thiophen-2-yl)carbonylpiperazin-1-yl]-1.4;3.6-dianhydro-L-iditol 2-nitrate hydrochloride] | < 30 | > 100 | > 300 | 
O=C(O)Cc1ccc(SCCCN2CCN([C@H]3CO[C@H]4[C@@H]3OC[C@@H]4O[N+](=O)[O-])CC2)cc1 [Compound 16, 5-[4-[3-(4-Carboxymethylphenylthio)propyl]piperazin-1-yl]-5-deoxy-1.4;3.6-dianhydro-L-iditol 2-nitrate] | < 30 | > 100 | > 300 | 
O=[N+]([O-])O[C@H]1CO[C@H]2[C@@H]1OC[C@@H]2N1CCN(CCCn2ccc3ccccc32)CC1 [Compound 27, 5-Deoxy-5-[4-[3-(indol-1-yl)propyl]piperazin-1-yl]-1.4;3.6-dianhydro-L-iditol 2-nitrate hydrochloride] | < 30 | > 100 | > 300 | 
O=[N+]([O-])O[C@H]1CO[C@H]2[C@@H]1OC[C@@H]2N1CCN(CCCn2ccnc2)CC1 [Compound 21, 5-Deoxy-5-[4-[3-(imidazol-1-yl)propyl]piperazin-1-yl]-1.4;3.6-dianhydro-L-iditol 2-nitrate hydrochloride] | < 30 | > 100 | > 300 | 
O=[N+]([O-])O[C@H]1CO[C@H]2[C@@H]1OC[C@@H]2N1CCN(CCCSc2ccccc2)CC1 [Compound 1, 5-Deoxy-5-[4-(3-phenylthiopropyl)piperazin-1-yl]-1.4;3.6-dianhydro-L-iditol2-nitrate hydrochloride] | < 30 | > 100 | > 150 | < 25
O=[N+]([O-])O[C@H]1CO[C@H]2[C@@H]1OC[C@@H]2N1CCN(CCCn2cnc3ccccc32)CC1 [Compound 22, 5-[4-[3-(Benzimidazol-1-yl)propyl]piperazin-1-yl]-5-deoxy-1.4;3.6-dianhydro-L-iditol 2-nitrate hydrochloride] | < 30 | > 100 | > 300 | < 25
O=C(c1cccnc1)N1CC[N+]([O-])([C@H]2CO[C@H]3[C@@H]2OC[C@@H]3O[N+](=O)[O-])CC1 [Compound 113, 5-Deoxy-5-[4-(pyridin-3-yl)carbonylpiperazin N^1-oxid-1-yl]-1.4;3.6-dianhydro-L-iditol 2-nitrate hydrochloride] |  | > 100 | > 300 | < 25
